{"source": "patent US9181375B2", "about": "“Fluorescent potassium ion sensors” (ARIZONA BOARD OF REGENTS, A BODY CORPORATE OF THE STATE OF …, priority 2011, dated 2015)", "key": {"[1]": {"assay": "Fluorescence response of sensors to other cations and pH in buffer (selectivity)", "protocol": "(§1) To determine sensor responses, 50 μL of 2(a) (Example 10) was dissolved in DMSO resulting in a concentration of 200 μM which was then added into 2 mL of HEPES (10 mM, pH 7.2) buffer. […] Different metal ion concentrations were added into the solution for studying 2(a)'s responses. Although the reaction of the compound and the metal ion was rapid (usually within seconds), the spectra was measured after 2 minutes to ensure stability. 2(a)/metal ion complexes were excited at 561 nm and emissions were collected from 600 to 750 nm.\n2(a) was also tested against physiological concentration levels of the following metal ions: K^+, Na^+, Ca^2+, Mg^2+, Fe^3+, Zn^2+, Mn^2+, and Cu^2+. […] Furthermore, this trend was also present when the concentrations of Na^+, Ca^2+, and Mg^2+ were increased to 140 mM (FIG. 9).\nNa^+ is usually an interference ion to K^+ for the typical K^+ probes including PBFI, CD18, C18, and MCC."}, "CP-A cells [2]": {"system": "CP-A cells", "assay": "Cytotoxicity by Trypan blue staining", "format": "cell-based", "conditions": "1(a) internalized for 30 minutes", "protocol": "(§2) Cytotoxicity of the sensor 1(a) to cells was studied using Trypan blue staining. After 30 minutes internalization of the sensor with cells, more than 97% cells were viable, showing the non-cytotoxicity of 1(a) to the two cell lines under our experimental conditions."}, "U87MG cells [3]": {"system": "U87MG cells", "assay": "Cytotoxicity by Trypan blue staining", "format": "cell-based", "protocol": "Cytotoxicity of 2(a) to human glioblastoma U87MG cells was studied using Trypan blue staining. To cell culture medium (100 μL) with eukaryotic cells in a 96 well microplate with 10,000 cells/well that had internalized 2(a) for 2 hours, […] of 0.4% Trypan Blue stain was added and mixed thoroughly with the medium. After standing for 5 min at room temperature (23° C.), the cells were imaged using an optical microscope in bright field mode. Dead cells appeared blue from the Trypan Blue stain, whereas healthy cells appeared transparent as a result of the cell's resistance to stain. The cells were then counted and the ratio of dead cells to live cells was calculated. Each experiment was repeated three times.\nas §2"}, "[4]": {"assay": "Fluorescence titration of 1(a) with KCl in HEPES buffer, Benesi-Hildebrand plot", "format": "binding", "conditions": "10 mM HEPES pH 7.4, excitation 450 nm, emission 525 nm", "protocol": "FIGS. 17A and 17B show the UV-Vis and emission spectral changes upon the interaction of 1(a) with potassium chloride (KCl) in 10 mM HEPES buffer (pH 7.4). […] This fluorescence change was attributed to photo-induced electron transfer. The lone electron pairs of the amino groups in the triazacryptand ligand quench the emission of the fluorophore of the amino-naphthalimide through PET. After interaction with K^+, the lone electron pairs of the ligand were occupied due to the formation of the ligand-K^+ complex. This change restores the emission of the amino-naphthalimide fluorophore. Fluorescence intensity change at 525 nm was plotted again K^+ concentration, which is illustrated in FIG. 17C. Binding constant K could be determined by the fluorescence spectral change using the Benesi-Hildebrand equation as described above.\nCurve fitting of the fluorescence intensity of 1(a) against the reciprocal of the K^+ concentration (1/[K^+]), the Benesi-Hildebrand plot, gives a linear fit (FIG. 17D)."}, "[5]": {"assay": "Fluorescence titration of 2(a) with KCl in HEPES buffer, Benesi-Hildebrand plot", "format": "binding", "conditions": "HEPES pH 7.2", "protocol": "as §1\n2(a) is constructed using strong electron-donating (aniline) and electron-withdrawing (TCF) groups, yielding an absorption maximum at 560 nm. The extinction coefficient (s) at 560 nm is 3.84×10^4 M^−1 cm^−1. […] Upon addition of K^+, the fluorescence intensity of 2(a) increases by ca. 4 and 50 fold at K^+ concentrations of 140 mM and 1400 mM (FIGS. 8A and 8B), respectively, resulting in corresponding η of 0.52% and 5.6%. Kd was determined by the Benesi-Hildebrand equation: F0/(F0−F)=F0/(F0−Fcomplex)+F0/(F0−Fcomplex)×Kd×1/[M] (1) where F0 is the integrated fluorescence intensity of a free sensor, F is the observed integrated fluorescence intensity, Fcomplex is the emission of the ligand-metal ion complex, and [M] is the metal ion concentration. When F0/(F0−F) is plotted against 1/[M], the binding constant is given by the ratio intercept/slope. […]"}, "[6]": {"assay": "Fluorescence quantum yield against Rhodamine B standard", "format": "physicochemical", "protocol": "The fluorescence quantum yields (η) of samples in solutions were recorded by using Rhodamine B in ethanol (η=0.65) excited at 540 nm and were calculated according to the following equation:\n[formula] where (ηr) and (ηs) are the fluorescence quantum yields of standards and the samples, respectively. Ar and As are the absorbance of the standards and the measured samples at the excitation wavelength, respectively. Ir and Is are the integrated emission intensities of standards and the samples, respectively. nr and ns are the refractive indices of the corresponding solvents present in the solutions, respectively. The experimental error was approximately 10%."}, "U87MG cells [7]": {"system": "U87MG cells", "assay": "Intracellular K+ influx monitored with 2(a), confocal fluorescence, ImageJ", "format": "cell-based, human", "conditions": "isoproterenol 5 μM with 20 mM KCl in medium, 40 minutes, 37° C.; 2(a) 4 μM", "protocol": "2(a) can also be used to monitor K^+ influx through stimuli. […] The influx stimulator (isoproterenol in KCl-containing PBS buffer) was added. Final concentrations of the added isoproterenol and KCl in the cell culture medium were 5 μM and 20 mM, respectively."}, "U87MG cells [8]": {"system": "U87MG cells", "assay": "Dynamic K+ influx and efflux monitored with 2(a) after nigericin", "format": "cell-based, human", "conditions": "nigericin 20 μM in 20 mM KCl medium", "protocol": "2(a) was further tested for in-situ observation of dynamic potassium ion influx and then efflux through the changes of fluorescence (FIG. 15) stimulated by an ionophore nigericin. Cells internalized with 4 μM of 2(a) at 37° C. for 10 minutes were washed with 20 mM KCl-containing fresh medium. Nigericin (20 μM at its final concentration) was added in 20 mM KCl-containing medium to help K^+ to across cell membrane. Enhanced fluorescence was immediately observed after the addition of nigericin, indicating potassium ion influx occurred. The potassium influx peaked after 3 minutes with an average of fluorescence increase of 370%. After 3 minutes, potassium efflux was observed by the decrease of the fluorescence. The efflux stabilized after 15 minutes, and the fluorescence intensity after the stabilization was about 25% below that of before the stimulation by nigericin. The ionophore nigericin was used to stimulate K^+ influx for yeast Saccharomyces cerevisiae. It was also reported to be a K^+ efflux stimulator for human colorectal adenocarcinoma HT-29 cells."}, "U87MG cells [9]": {"system": "U87MG cells", "assay": "Intracellular K+ efflux monitored with 1(a), microplate reader", "format": "cell-based, human", "conditions": "cells loaded with 2 μM 1(a); nigericin 5 μM, bumetanide 10 μM, ouabain 10 μM; 2.5 h", "description": "(§6) U87MG and CP-A cells were seeded onto 96 well plates at 10,000 cells per well and maintained in 100 μL medium overnight. The following day, the cells were loaded with 1(a) (2 μM) for 20 min, then the excess 1(a) was removed by washing with medium. The test substances were added and the experiment was terminated after 2.5 h by washing the cells with physiological NaCl solution. A microplate reader (Molecular Device, Downingtown, Pa.) was used to read the fluorescence intensities from the intracellular 1(a). 444 nm was used to excite the sensor and the emission was measured at 538 nm. The measured fluorescence intensities were corrected with background fluorescence. Each experiment was repeated in triplicate.\n(§7) The decrease of the fluorescence intensities indicates the efflux of the intracellular potassium ions from the cells."}, "CP-A cells [10]": {"system": "CP-A cells", "assay": "Intracellular K+ efflux monitored with 1(a), microplate reader", "format": "cell-based", "conditions": "cells loaded with 2 μM 1(a); nigericin 5 μM, bumetanide 10 μM, ouabain 10 μM; 2.5 h", "description": "as §6, §7"}, "B. subtilis": {"system": "B. subtilis", "assay": "K+ release from bacteria stimulated by lysozyme, measured with F4 film", "format": "cell-based, B. subtilis 168", "conditions": "lysozyme added to bacteria in 150 mM NaCl buffer pH 7.4, F4 film", "protocol": "(§3) E. coli JM 109 and B. subtilis 168 were cultured overnight in LB medium (Difco®, Becton, Dickinson and Company, Sparks, Md.) by shaking at 180 rpm at 37° C. The concentration of E. coli and B. subtilis in culture was estimated by measuring the optical density at 600 nm (OD600). OD600 value of 1 indicated a concentration of 5.0×10^8 cfu/mL. After the microorganism density was determined, bacterial cells were collected by centrifuge at 2000×g for 20 minutes at room temperature. Then appropriate densities of bacteria were made using fresh buffer (150 mM NaCl, pH 7.4) to achieve the desired initial concentrations for experiments.\n(§4) The F4 film (Example 16) was placed diagonally into quartz cuvettes with 2 mL of bacteria suspension at different densities. […] The potassium ion concentration was calculated from the measured fluorescence ratio (F/F0).\n(§5) F4 film was used for both gram positive (i.e. B. subtilis) and negative (i.e. E. coli) bacteria and lysozyme was used as a model drug to stimulate K^+ efflux from the organisms. […] The washed organisms were resuspended in 2 mL of the potassium-free buffer in quartz cuvettes at a concentration range of 1.5×10^10 to 1.0×10^11 cfu/mL F4 was immersed into the above prepared mixtures, and then lysozyme was added into the cuvettes to stimulate the K^+ efflux, which was monitored through the time dependent fluorescence intensity changes of F4 film. […]"}, "E. coli": {"system": "E. coli", "assay": "K+ release from bacteria stimulated by lysozyme, measured with F4 film", "format": "cell-based, E. coli JM 109", "conditions": "lysozyme added to bacteria in 150 mM NaCl buffer pH 7.4, F4 film", "protocol": "as §3, §4, §5"}}}
{"compound": "C=CCN1C(=O)c2cccc3c(NCCc4ccc(N5CCOc6cc(C)ccc6N6CCOCCOCCN(CCOCCOCC6)c6ccc(C)cc6OCC5)c(OCCOC)c4)ccc(c23)C1=O", "note": "[1(a)]", "values": [{"measurement": "selectivity against biologically relevant metal ions", "setting": "[1]; 1(a), Na^+, Ca^2+, Mg^2+, Fe^3+, Zn^2+, Mn^2+, Cu^2+ at physiological concentrations (FIG. 17E)", "value": "high selectivity"}, {"measurement": "viable cells", "setting": "CP-A cells [2]", "value": "more than 97%"}, {"measurement": "viable cells", "setting": "U87MG cells [3]; 1(a) internalized for 30 minutes, Trypan blue", "value": "more than 97%"}, {"measurement": "binding constant (K)", "setting": "[4]", "value": 0.133, "unit": "mM⁻¹"}]}
{"compound": "COCCOc1cc(/C=C/C2=C(C#N)C(=C(C#N)C#N)OC2(C)C)ccc1N1CCOc2cc(C)ccc2N2CCOCCOCCN(CCOCCOCC2)c2ccc(C)cc2OCC1", "note": "[2(a)]", "values": [{"measurement": "selectivity to K^+ against other metal ions", "setting": "[1]; Na^+, Ca^2+, Mg^2+, Fe^3+, Zn^2+, Mn^2+, Cu^2+ at physiological levels, Na^+, Ca^2+, Mg^2+ also at 140 mM", "value": "high selectivity"}, {"measurement": "sensitivity to pH", "setting": "[1]; pH 5 to 8", "value": "not sensitive to pH in the range of 5 to 8"}, {"measurement": "fluorescence intensity increase upon addition of K^+", "setting": "[5]; K^+ 140 mM", "value": "ca. 4 fold"}, {"measurement": "fluorescence intensity increase upon addition of K^+", "setting": "[5]; K^+ 1400 mM", "value": "~50", "unit": "fold"}, {"measurement": "quantum yield (η)", "setting": "[6]; K^+ 140 mM", "value": 0.52, "unit": "%"}, {"measurement": "quantum yield (η)", "setting": "[6]; K^+ 1400 mM", "value": 5.6, "unit": "%"}, {"measurement": "quantum yield (η)", "setting": "[6]; free form, no K^+", "value": 0.11, "unit": "%"}, {"measurement": "viable cells", "setting": "U87MG cells [3]; human, 2 h", "value": "more than 97%"}]}
{"compound": "CC(C)NCC(O)c1ccc(O)c(O)c1", "note": "(stereo not shown) [isoproterenol]", "values": [{"measurement": "increase of average fluorescence intensity of cells after treatment", "setting": "U87MG cells [7]", "value": 33, "unit": "%"}]}
{"compound": "CO[C@@H]1C[C@@H](C[C@H]2CC[C@H](C)[C@H]([C@@H](C)C(=O)O)O2)O[C@]2(O[C@](C)([C@H]3CC[C@@](C)([C@@H]4O[C@@H]([C@H]5O[C@@](O)(CO)[C@H](C)C[C@@H]5C)C[C@@H]4C)O3)C[C@H]2C)[C@@H]1C", "note": "[nigericin]", "values": [{"measurement": "fluorescence intensity after stabilization, below that before stimulation", "setting": "U87MG cells [8]; efflux stabilized after 15 minutes", "value": "about 25%"}, {"measurement": "average fluorescence increase at peak of potassium influx", "setting": "U87MG cells [8]; peak after 3 minutes, 2(a) 4 μM", "value": 370, "unit": "%"}, {"measurement": "K^+ efflux, decrease of 1(a) fluorescence", "setting": "U87MG cells [9]", "value": "not an efficient K^+ efflux stimulator"}, {"measurement": "K^+ efflux, decrease of 1(a) fluorescence", "setting": "CP-A cells [10]", "value": "not an efficient K^+ efflux stimulator"}]}
{"compound": "lysozyme", "values": [{"measurement": "K^+ efflux from bacteria over time", "setting": "B. subtilis", "value": "K^+ efflux was very fast, within the first 10 minutes"}, {"measurement": "K^+ efflux from bacteria over time", "setting": "E. coli", "value": "K^+ efflux increased slowly over time"}]}
